The text below walks through data of paper PMC7373994 (2020).

What all share (test): in-line probing
Assay [1] deals with 53 tauA (RNA, riboswitch) GGAGAGUGAGUAGAAGCGGUCAGUGCAGGCAGCUGCGCGGGACAUUGCUCAGCAA
To be noted: 100 mM KCl, 20 mM MgCl2, 100 mM Tris-HCl pH 8.3, 19°C; for binding: tested up to 1 mM, 53 or 68 tauA construct not specified; for KD: apparent.

For assay [2], the system named is 68 tauA M1 (A12U) (RNA, riboswitch) GGAGAGUGAGUAGUAGCGGUCAGUGCAGGCAGCUGCGCGGGACAUUGCUCAGCAACCAUUUCGCGGUUCA
The conditions noted are these: 100 mM KCl, 20 mM MgCl2, 100 mM Tris-HCl pH 8.3, 19°C.

Assay [3] relates to 68 tauA M2 (G38C) (RNA, riboswitch) GGAGAGUGAGUAGAAGCGGUCAGUGCAGGCAGCUGCGCGCGACAUUGCUCAGCAACCAUUUCGCGGUUCA
To be noted: 100 mM KCl, 20 mM MgCl2, 100 mM Tris-HCl pH 8.3, 19°C.

Assay [4] deals with 68 tauA (RNA, riboswitch) GGAGAGUGAGUAGAAGCGGUCAGUGCAGGCAGCUGCGCGGGACAUUGCUCAGCAACCAUUUCGCGGUUCA
The conditions noted are these: 100 mM KCl, 20 mM MgCl2; 100 mM Tris-HCl pH 8.3, 19°C; qualitative, wild type compared with mutants.

Assay [5] relates to 68 tauA M3 (G6C, A7U) (RNA, riboswitch) GGAGAGUCUGUAGAAGCGGUCAGUGCAGGCAGCUGCGCGGGACAUUGCUCAGCAA
The conditions noted are these: 100 mM KCl, 20 mM MgCl2; 100 mM Tris-HCl pH 8.3, 19°C.

`Cn1c(=O)[nH]c(=O)c2[nH]c(=O)[nH]c21`: the binding entry in assay [1] is given as “no”.

Consider `Cn1c(=O)[nH]c2[nH]c(=O)[nH]c(=O)c21`, for which the binding result in assay [1] is given as “no”.

Regarding `Cn1c(=O)[nH]c2c(=O)[nH]c(=O)[nH]c21`, in assay [1], the binding entry is given as “no”.

With `O=c1[nH]c(=O)c2[nH]c(=O)[nH]c2[nH]1`, the binding result in assay [2] (tested up to 1000 µM) and in assay [3] (tested up to 1000 µM) was “no” throughout. The KD in assay [1] (Figure S2C legend prints 4.3 µM instead) is ~ 25 µM.

In the case of `O=c1[nH]c(=O)c2[nH]cnc2[nH]1`, the binding entry in assay [2] is “no”; in assay [4], “yes”; in assay [5] it was “no”; in assay [3] (artifact modulation at highest concentration), “no”. In addition, the KD in assay [1] (36 h, two repeats) was ~ 3.7 µM.

On to `O=c1[nH]cnc2c1ncn2[C@@H]1O[C@H](CO)[C@@H](O)[C@H]1O`, for which the binding result in assay [1] is “no”.
